According to patent publication US7544204B2, “Control of halitosis-generating and other microorganisms in the non-dental upper respiratory tract” (Valam Corporation, priority 2003, dated 2009):
Like-named read-outs stand apart in the source and are kept apart here.

Legend:
Escherichia Coli = settings: micromolar concentrations; gram negative (E. Coli); illuminated in light box; cited from earlier work
[1] = system: Porphyromonas Gingivalis and Prevotella Intermedia; settings: for bactericidal effect without light exposure: methylene blue 0.075% and 0.1%, no red halogen light
Staphylococcus Aureus = settings: micromolar concentrations; gram positive (Staph aureus); illuminated in light box; cited from earlier work
Candida albicans = settings: methylene blue 450 and 500 microgram/mL; diode laser 664 nm, 275 J/cm fiber length, 400 mW, 687.5 seconds; immunosuppressed murine model; cited from earlier work
P. gingivalis ATCC 33277 = assay: Lethal photosensitization of P. Gingivalis, colony count; assay type: cell-based, Porphyromonas Gingivalis
Experimental: • Suitable stain dosages for providing lethal sensitization of oral pathogens are determined in vitro by the following procedure. An objective is to determine the minimum duration of light exposure and minimum agent dilution required to achieve at least a 50% reduction in bacteria counts. Experimental tests are performed on two common pathogens using a continuously working, high intensity, red filtered halogen lamp. Red light from the filtered halogen lamp is transmitted through a flexible light guide to radiate downwardly onto petri dishes containing samples of live bacteria of species Porphyromonas Gingivalis and Prevotella Intermedia using the protocols described below. • Bacteria. Prevoltella Intermedia is isolated from patient sample material, identified in the laboratory using standard diagnostic test systems (Remel Inc., Lenexa, Kans., USA) and is maintained by twice-weekly subculture in thioglycollate medium (Becton Dickinson and Co, Sparks, Md., USA). P. gingivalis ATCC 33277 obtained from Remel Inc., is maintained by a twice-weekly subculture on CDC anaerobe blood agar (Becton Dickinson and Co, USA) and in thioglycollate medium (Becton Dickinson and Co, USA). • Light Source. […] The light output power density measured at 3 cm distance from the end of the light guide with filter is about 50 milliwatts/cm2. • Photosensitizer. […]

SMILES | bacterial cell death by phototoxicity (Escherichia Coli) | killing with duration of red-filtered light exposure ([1]; 1, 5 and 10 min with methylene blue 0.05%, 5 and 10 min with methylene blue 0.025%) | reduction in bacteria counts ([1]; light 5 min with methylene blue 0.025%, light 1 min with methylene blue 0.05% and higher) | killing of bacteria without halogen light ([1]; methylene blue 0.001% or 0.025%, without halogen light) | bactericidal effect in combination with red-filtered high-intensity light ([1]; methylene blue 0.01% or higher, exposure less than 10 minutes, accumulated energy 30 J/cm^2, both species) | survival rate (bacterial colony count) ([1]; methylene blue 0.05% and higher, red light exposure 10 or 20 minutes) | reduction of bacteria, methylene blue alone ([1]; methylene blue 0.05%, without exposure to light) | bactericidal effect without light exposure [1] | bactericidal effect without light exposure ([1]; listed as Methylene blue) | bacterial cell death by phototoxicity (Staphylococcus Aureus) | eradication of Candida albicans (Candida albicans) | bacterial killing without light exposure (P. gingivalis ATCC 33277; methylene blue 0.01%, without light exposure, P.gingivalis culture) | bactericidal effect on P.gingivalis (P. gingivalis ATCC 33277; methylene blue 0.1%)
CN(C)c1ccc2nc3ccc(=[N+](C)C)cc-3sc2c1 [methylene blue] | bacterial cell death | statistically significant increased killing with duration | Significant reduction in bacteria counts | nor concentrations of methylene blue of 0.001% or 0.025%, without halogen light, appeared to be effective in killing bacteria | bactericidal effect | ≤ 50% | insignificant | significantly bactericidal | significant bactericidal effect | bacterial cell death | totally eradicate | statistically significant bacterial killing | bactericidal effect
Cc1cc2nc3ccc(N(C)C)cc3[s+]c2cc1N.[Cl-] [toluidine blue O] | bacterial cell death |  |  |  |  |  |  |  |  | bacterial cell death |  |  | 
